Measured values taken from patent publication US20100152128A1, “Antiviral Agents” (priority 2007, published 2010).
Read-outs that look alike come from different tables or passages of the source.

System: subgenomic HCV Replicon in HuH-7 cells
Experiment: Assay for inhibition of HCV RNA replication (replicon, in situ ribonuclease protection SPA)
Type: cell-based, Hepatitis C Virus
[1] = Hepatitis C virus, HuH-7 hepatoma cells containing a subgenomic HCV Replicon, inhibition of HCV RNA replication, read-out: EC50
[2] = HuH-7 hepatoma cells containing a subgenomic HCV Replicon, inhibition of HCV RNA replication, read-out: EC50

Compound: CCCC(CCC)COC(=O)[C@H](C)NP(=O)(O)OC[C@H]1O[C@@H](n2ccc(N)nc2=O)[C@](C)(O)[C@@H]1O [Example 2, 5′-O-[hydroxy[[(1S)-1-methyl-2-oxo-2-[(2-propylpentyl)oxy]ethyl]amino]phosphinyl]-2′-C-methylcytidine]
- EC50 [1]: 6 µM

Compound: C[C@H](NP(=O)(O)OC[C@H]1O[C@@H](n2ccc(N)nc2=O)[C@](C)(O)[C@@H]1O)C(=O)OC1CCCCCC1 [Example 4, 5′-O-[[[(1S)-2-(cycloheptyloxy)-1-methyl-2-oxoethyl]amino]hydroxyphosphinyl]-2′-C-methylcytidine]
- EC50 [1]: 9.9 µM

Compound: C[C@H](NP(=O)(O)OC[C@H]1O[C@@H](n2ccc(N)nc2=O)[C@](C)(O)[C@@H]1O)C(=O)OC1CCCCCCC1 [Example 5, 5′-O-[[[(1S)-2-(cyclooctyloxy)-1-methyl-2-oxoethyl]amino]hydroxyphosphinyl]-2′-C-methylcytidine]
- EC50 [1]: 9.9 µM

Compound: CCCC(CCC)c1noc([C@H](C)NP(=O)(O)OC[C@H]2O[C@@H](n3ccc(N)nc3=O)[C@](C)(O)[C@@H]2O)n1 [Example 8, [(3aR, 4aR, 6R, 6aR)-6-(4-amino-2-oxopyrimidin-1(2H)-yl)-3,4-dihydroxy-4-methyltetrahydrofuran-2-yl]methyl hydrogen{(1S)-1-[3-(1-propylbutyl)-1,2,4-oxadiazol-5-yl]ethyl}amidophosphate]
- EC50 [2]: 5.4 µM

Compound: CCCC(CCC)c1nnc([C@H](C)NP(=O)(O)OC[C@H]2O[C@@H](n3ccc(N)nc3=O)[C@](C)(O)[C@@H]2O)o1 [Example 9, 5-O-[hydroxy[[1-[5-(1-propylbutyl)-1,3,4-oxadiazol-2-yl]ethyl]amino]phosphinyl]-2′-C-methylcytidine]
- EC50 (Hepatitis C virus, Huh-7): 10.6 µM

Compound: CCCC(CCC)COC(=O)C(C)NP(=O)(O)OC[C@H]1O[C@@H](n2ccc3c(N)ncnc32)[C@](C)(O)[C@@H]1O (stereo partly shown) [Example 10, 5′-O-[hydroxyl[[1-methyl-2-oxo-2-[(propylpentyl)oxy]ethyl]amino]phosphinyl]-2′-C-methyl-7-deaza adenosine]
- EC50 [2]: 1.1 µM

Compound: CCCC(CCC)C(=O)OCCNP(=O)(O)OC[C@H]1O[C@@H](n2ccc3c(N)ncnc32)[C@](C)(O)[C@@H]1O [Example 11, 5′-O-[hydroxyl[[2-[(1-oxo-2-propylpentyl)oxy]ethyl]amino]phosphinyl]-2′-C-methyl-7-deaza adenosine]
- EC50 [1]: 0.7 µM
